# Reference: PubChem BioAssay (NCI)
#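 Each compound was tested at five concentrations against cells in 96-well plates for 48 hours. GI50 is the concentration that inhibits growth by half. Definition used: TGI = concentration required for complete inhibition of growth.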
# What was measured:
# Assay in all cases: NCI tumour cell line growth inhibition, 48 h
# DLD-1 colon = system: DLD-1 colon
# DMS 114 small cell lung = system: DMS 114 small cell lung
# MOLT-4 leukemia = system: MOLT-4 leukemia
# SF-295 CNS = system: SF-295 CNS
# SK-MEL-2 melanoma = system: SK-MEL-2 melanoma
# SN12C renal = system: SN12C renal
# TK-10 renal = system: TK-10 renal
# HCT-15 colon = system: HCT-15 colon
# BT-549 breast = system: BT-549 breast
# PC-3 prostate = system: PC-3 prostate
Compound,TGI (DLD-1 colon) [µM],TGI (DMS 114 small cell lung) [µM],TGI (MOLT-4 leukemia) [µM],TGI (SF-295 CNS) [µM],TGI (SK-MEL-2 melanoma) [µM],TGI (SN12C renal) [µM],TGI (TK-10 renal) [µM],TGI (HCT-15 colon) [µM],GI50 (BT-549 breast) [µM],TGI (BT-549 breast) [µM],GI50 (HCT-15 colon) [µM],GI50 (MOLT-4 leukemia) [µM],GI50 (PC-3 prostate) [µM],TGI (PC-3 prostate) [µM],GI50 (SF-295 CNS) [µM],GI50 (SK-MEL-2 melanoma) [µM],GI50 (SN12C renal) [µM],GI50 (TK-10 renal) [µM],GI50 (DLD-1 colon) [µM]
O=C(OCc1ccccc1)n1cccc1,> 100,> 100,> 100,> 100,> 100,> 100,> 100,–,–,–,–,–,–,–,–,–,–,–,–
C=C1C(C(=O)O)C1C(=O)O (stereo unspecified),> 100,> 100,> 100,> 100,> 100,> 100,> 100,> 100,–,–,–,–,–,–,–,–,–,–,–
CC(C)(C)OC1=C(OC(C)(C)C)C(O)(c2ccc(Cl)cc2)C1=O (stereo unspecified),> 100,> 100,> 100,> 100,–,> 100,> 100,> 100,–,–,–,–,–,–,–,–,–,–,–
CC[P+]1(c2ccccc2)CCCCC1,> 100,> 100,> 100,> 100,> 100,> 100,> 100,> 100,–,–,–,–,–,–,–,–,–,–,–
N#CC(C#N)=C1CCC2C(=C(C#N)C#N)CCC12 (stereo unspecified),> 100,> 100,> 100,> 100,–,> 100,> 100,> 100,–,–,–,–,–,–,–,–,–,–,–
C=CCC1C(=O)CC2(C)C(CC=C)C(=O)CC12C (stereo unspecified),> 100,–,> 100,> 100,> 100,> 100,> 100,> 100,–,–,–,–,–,–,–,–,–,–,–
O=C(Nc1ccc(Cl)cc1)N1CCN(c2ccc3nncn3n2)CC1,–,–,69.6,> 100,> 100,> 100,> 100,> 100,57.4,> 100,30.2,23.8,34.3,> 100,53.4,65.4,72.4,43,–
C=C1C(=O)O[C@H]2[C@H]1CC/C(COC(=O)N[C@H](Cc1c[nH]c3ccccc13)C(=O)OC)=C\CC[C@@]1(C)O[C@@H]21,–,–,7.54,22.7,23.8,5.69,5.07,3.43,1.37,2.96,1.53,2.5,6.49,20.5,10.7,7.21,2.08,2.1,–
O=C(O)c1[nH]c2c([N+](=O)[O-])cc([N+](=O)[O-])cc2c1C(=O)O,–,–,> 100,> 100,> 100,> 100,> 100,> 100,–,> 100,–,–,–,> 100,–,–,–,–,–
c1ccc(/C(=N\Nc2nc3ccccc3s2)c2ccccn2)cc1,–,–,4.17,> 100,> 61.8,39.8,37.5,> 100,–,> 100,–,–,–,> 53.2,–,–,–,–,–
O=C1CCc2ccc(O)c(c2)Oc2ccc(cc2)[C@@H]2O[C@@H]2CO1,> 100,67,> 100,> 100,> 100,> 100,> 100,–,–,–,–,–,–,–,–,–,–,–,–
CC(=O)[CH-]C(=O)c1ccccc1.CC(=O)[CH-]C(=O)c1ccccc1.CC(=O)[CH-]C(=O)c1ccccc1.[Br-].[Zr+4],> 100,–,> 100,> 100,> 100,> 100,> 100,> 100,–,–,89.7,47.2,–,–,33.8,38.5,57.1,> 100,28.1
OCC1OC(n2cnc3c(NCc4ccccc4O)ncnc32)C(O)C1O (stereo unspecified),–,–,> 38,> 56.7,1.83,20,> 52.6,–,0.177,2.29,0.432,0.596,0.523,> 50.1,6.48,0.328,0.178,0.322,–
Nc1nc(N)c(-c2ccc(Cl)c(Cl)c2)c(CP(Cl)(Cl)(Cl)Br)n1,–,–,> 100,> 100,48.7,> 100,> 100,> 100,40.7,> 100,4.26,28.6,5.31,> 100,6.7,17.9,6.47,29.6,–
CCc1ccccc1NC(=O)C(=O)C(C#N)c1c(Cl)cccc1Cl (stereo unspecified),> 100,–,> 100,> 100,> 100,> 100,> 100,> 100,–,–,–,–,–,–,–,–,–,–,–
CCCCNCCCCCNc1cc(OC)cc2cccnc12,–,–,41.1,84.9,37.5,> 100,44.5,> 100,14.5,28.8,47.9,18,15.2,34.7,28.4,19.6,36.5,23.4,–
CCOP(=O)(OCC)C(NC(c1ccccc1)c1ccccc1)c1ccc(C(C)C)cc1 (stereo unspecified),–,–,4.25,11.7,72.7,16.8,14.4,13.1,6.8,28.9,3.22,1.71,2.9,13.3,2.92,19.2,4.65,3.32,–
CC(=O)O[C@H]1CC[C@]2(C)C3C(=O)C[C@]4(C)[C@@H](C(C)CCC(=O)O)CC[C@@]4(C)[C@@H]3CC[C@H]2C1(C)C (stereo partly specified),–,–,> 50,> 50,> 50,> 50,> 50,46.9,17,39.4,11.7,> 50,18.3,> 50,17.9,45.8,> 50,21.8,–

Compound,TGI (DLD-1 colon) [µM],TGI (DMS 114 small cell lung) [µM],TGI (MOLT-4 leukemia) [µM],TGI (SF-295 CNS) [µM],TGI (SK-MEL-2 melanoma) [µM],TGI (SN12C renal) [µM],TGI (TK-10 renal) [µM],TGI (HCT-15 colon) [µM],GI50 (BT-549 breast) [µM],TGI (BT-549 breast) [µM],GI50 (HCT-15 colon) [µM],GI50 (MOLT-4 leukemia) [µM],GI50 (PC-3 prostate) [µM],TGI (PC-3 prostate) [µM],GI50 (SF-295 CNS) [µM],GI50 (SK-MEL-2 melanoma) [µM],GI50 (SN12C renal) [µM],GI50 (TK-10 renal) [µM],GI50 (DLD-1 colon) [µM]
CCS(=O)(=O)N1CCN(c2ccc(Nc3ncc(C(N)=O)c(NC4CC4)n3)cc2)CC1,–,–,16.5,94.3,21.4,49.6,32.2,27.1,3.19,11.3,2.64,2.7,16.1,> 100,5.01,4.62,2.6,9.19,–
O=C(O)CCSC(=O)Nc1ccccc1,> 100,–,> 100,> 100,> 100,> 100,> 100,> 100,–,–,–,–,–,–,–,–,–,–,–
Cc1cn(C2CC(O)C(COC(N)=O)O2)c(=O)[nH]c1=O (stereo unspecified),–,–,> 100,> 100,> 100,> 100,> 100,> 100,–,> 100,–,–,–,> 100,–,–,–,–,–
CC(=O)/C=C/c1ccc(N(CCO)Cc2ccc(C(C)(C)C)cc2)cc1,–,–,142,176,233,157,237,124,47.8,178,27.8,30.1,32.2,128,40.3,96.7,38.7,112,–
CCCCC[C@H]1C/C=C2/C(=O)C(Cl)=C[C@@H]2C/C=C\CCCC(=O)O1,–,–,2.98,1.53,1.13,0.905,1.17,0.895,0.421,0.825,0.284,0.117,0.473,1.27,0.563,0.439,0.333,0.612,–
CCC(C)C(=O)OC1CCC=C2C=CC(C)C(CCC3CC(O)CC(=O)O3)C21 (stereo unspecified),–,–,> 100,> 100,> 100,> 100,98.8,> 100,–,73,–,–,–,> 47.9,–,–,–,–,–
Cc1ccc2c(c1)C(O)(c1ccccc1)CCS2 (stereo unspecified),–,–,44.7,80.3,80.4,> 100,78.6,42.4,–,93.6,–,–,–,> 100,–,–,–,–,–
O=C(NCc1ccccc1)C1C(=O)C(=O)N(Cc2ccccc2)C1=O (stereo unspecified),> 100,–,> 100,> 100,> 100,> 100,> 100,> 100,–,–,–,–,–,–,–,–,–,–,–
CC(=N\O)/C(C)=N/O.CC(=N\O)/C(C)=N/O.[Fe].[NH2-].c1c[nH]cn1,–,–,> 100,> 100,> 100,> 100,> 100,> 100,> 100,> 100,> 100,> 100,> 100,> 100,> 100,> 100,> 100,> 100,–
C=C1C(=O)O[C@H]2[C@H]1CC/C(COC(=O)/C=C\C(=O)NCc1ccc(Cn3c(=O)sn(-c4ccc(Cl)cc4)c3=O)cc1)=C\CC[C@@]1(C)O[C@@H]21,–,–,3.27,8.8,1.89,1.63,1.5,1.47,0.591,1.51,0.331,0.499,0.599,1.39,3.11,0.904,0.666,0.775,–
CCSCCCC(=O)O,–,–,> 100,> 100,> 100,> 100,> 100,> 100,–,> 100,–,–,–,> 100,–,–,–,–,–
CC(C)(C)OC(=O)N1Cc2cc3ccccc3nc2C1CO (stereo unspecified),–,–,> 100,> 100,> 100,> 100,> 100,> 100,> 100,> 100,> 100,> 100,> 100,> 100,> 100,> 100,> 100,> 100,–
COc1ccc2c(c1)C(=O)c1c-2n(CCCCl)c(=O)c2cc(N)ccc12,–,–,> 100,> 100,> 100,97.4,> 100,> 100,> 100,> 100,> 95.7,> 54.6,> 72.8,> 100,> 64.6,> 100,–,> 82.5,–
N/C(=N/S(=O)(=O)c1cc(C(=O)Nc2ccc(F)cc2)c(Cl)cc1SCc1ccccc1)Nc1ccccc1O,–,–,2.99,3.66,4.02,3.7,8.61,> 100,1.83,4.74,37.1,1.55,2.08,4.61,1.95,2.13,1.88,2.8,–
CCC(=C(c1ccc(OCCN2CCCC2)cc1)c1ccc(OCCN2CCCC2)cc1)c1ccc(Cl)cc1,–,–,1.32,1.23,1.35,1.1,1.33,1.04,0.733,1.86,0.524,0.592,0.569,1.2,0.637,0.688,0.572,0.628,–
CCOC(=O)c1ccc(NC(=O)c2cccc(NC3=C(Cl)C(=O)N(Cc4ccccc4)C3=O)c2)cc1,–,–,99.2,> 100,> 100,> 100,> 100,> 100,> 100,> 100,> 100,28.1,> 100,> 100,> 100,> 100,> 100,> 100,–
CCN(CC)CCCNc1cc(OC)c(OC)c2cccnc12,–,–,8.88,33.1,42.8,7.7,50.1,49.8,18.6,36.5,14.1,3.27,16.1,47.2,7.74,14.5,2.47,23,–
CC1(C)CC[C@]2(CO)CC[C@]3(C)C(=CC[C@@H]4[C@@]5(C)CCNCC(C)(C)[C@@H]5CC[C@]43C)[C@@H]2C1,–,–,18.7,3.97,5.57,16.9,22.6,6.26,4.79,18.3,2.16,4.41,4.32,18.3,1.93,2.32,4.08,10.3,–
